Measurements taken from article PMC10113214 (Scientific Reports, 2023).

Tests used:
[1] = tested on: full-thickness excisional dorsal skin wounds; experiment: Skin wound healing model in mice; assay type: in vivo, BALB/c mice
Experimental: Eight to ten-week-old BALB/c female mice were used for these experiments. All experimental procedures were approved by the Local Ethics Committee for Animal Experimentation in Bydgoszcz, Poland (Approval No. 49/2016). The study was conducted in compliance with the ARRIVE gudidelines. All animal handling methods were carried out in accordance with European Union Commission Recommendation of 18 June 2007 on guidelines for the accommodation and care of animals used for experimental and other scientific purposes. Before experiments, mice were randomized and divided into groups comprising six individuals. The mice were anaesthetized with inhaled 2–5% isoflurane. The skin on the dorsum was shaved and disinfected. After the skin was folded and raised cranially and caudally along the spine, the mouse was placed in a lateral position, and the folded skin was pierced with a 6.0 mm biopsy punch to make two through-and-through symmetrical wounds. Next, 10 µL of peptide hybrid hydrogel was applied onto each wound. Every gel was prepared in sterile conditions in biological safety cabinet, using sterile water to final concentration of 10 mg/ml (1%). Then the gels were incubated for 24 h allowing it to assemble. Control mice were treated with RADA16-I. The wounds were covered with a transparent Tegaderm TM dressing to protect the wound from outer environment of the cage and other animals. It was fastened with an adhesive plaster wrapped around the animal’s torso. The peptide hybrids were applied daily to the wounds for five consecutive days. The dressings were replaced daily in the first five days of the experiment and every second day until the end of the second week of the experiment. To measure the wound areas the wounds were photographed with a ruler placed next to the injury site. Wound areas were calculated using the computer-assisted image analysis program ImageJ[51].

dorsal skin wounds = experiment: Histological evaluation of skin samples; assay type: in vivo, BALB/c mice; conditions: Masson’s trichrome, versus RADA16-I group, Mann–Whitney U test
Excerpt: Mice were sacrificed on day 18 post-injury. In addition, for investigation of early wound healing, 1 mouse from each group was sacrificed on day 4 post-injury. The skin samples were collected and stored in formalin. Skin samples embedded in paraffin were cut into 5 µm sections following staining with Masson’s trichrome (green: collagen, dermis; grey or dark grey: cell nuclei, epidermis, sebaceous glands; dark red: keratinized epidermis, muscle, hair; light red: red blood cells). Image acquisitions were made with a Leica DM IL microscope. To evaluate the collagen density in dorsal skin wounds, we employed the method of colour deconvolution described by Ruifrok and Johnston[52]. Using the ImageJ software with a colour deconvolution plug-in[53], we analyzed between 7 and 9 images of dorsal skin samples stained with Masson’ trichrome, representing 2–3 mice per group. The results are presented as mean relative collagen density.

Rheology of hydrogels = assay type: physicochemical; conditions: 1% hydrogel, 37 °C
Experimental: Rheological parameters of the hydrogels were identified using an MCR 302 rheometer (Anton Paar GmbH, Graz, Austria). The rheometer was equipped with a CP50-1 stainless steel cone-and-plate system of 50 mm diameter, 1° cone angle and 50 µm cone truncation and a Peltier controlled temperature unit. An aliquot of 900 µL of 1% hydrogel was applied to a plate cone. The linear viscoelastic (LVE) region was determined through an amplitude sweeps: shear strain (0.01–100% at 6 rad s^−1) and shear stress (0.001–10 Pa at 6.28 rad s^−1). Frequency sweep were measured from 0.01 to 100 rad s^−1 at 2.5% strain. The frequency dependence of the storage modulus (G’) and loss modulus (G”) of the hydrogels were measured at 37 °C. All experiments were carried out in triplicate and reported as the mean of three repeats.

**Q.** Which results are given for `CC(=O)N[C@@H](CCCNC(=N)N)C(=O)N[C@@H](C)C(=O)N[C@@H](CC(=O)O)C(=O)N[C@@H](C)C(=O)N[C@@H](CCCNC(=N)N)C(=O)N[C@@H](C)C(=O)N[C@@H](CC(=O)O)C(=O)N[C@@H](C)C(=O)N[C@@H](CCCNC(=N)N)C(=O)N[C@@H](C)C(=O)N[C@@H](CC(=O)O)C(=O)N[C@@H](C)C(=O)N[C@@H](CCCNC(=N)N)C(=O)N[C@@H](C)C(=O)N[C@@H](CC(=O)O)C(=O)N[C@@H](C)C(=O)NCC(=O)NCC(=O)NCC(=O)N[C@@H](C)C(=O)N[C@@H](C)C(=O)N1CCC[C@H]1C(=O)N[C@H](C(=O)NCC(=O)NCC(=O)NCC(=O)N[C@@H](CCCCN)C(=O)NCC(=O)N[C@@H](Cc1c[nH]cn1)C(=O)N[C@@H](CCCCN)C(N)=O)C(C)C` [RADA-KGHK, Ac-(Arg-Ala-Asp-Ala)4-Gly-Gly-Gly-Ala-Ala-Pro-Val-Gly-Gly-Gly-Lys-Gly-His-Lys-NH2]?
**A.** wound closure on day 7 ([1]; BALB/c female mice, 6.0 mm punch dorsal wounds, 10 µL 1% hydrogel topically daily for five days, n = 6, SD): 44.4 ± 4.9%; wound healing compared to RADA16-I ([1]; BALB/c mice, 1% hydrogel topically, day 2 up to day 14): Accelerated wound healing; epithelium (membrane-like structure) thickness on day 4 post-injury (dorsal skin wounds): significantly thicker epithelium; magnitude of G’ compared with other gels (Rheology of hydrogels; cone-plate, frequency sweep, mean of three repeats): around one-tenth of these values; shear strain above which the gel behaves like a liquid (G” > G’) (Rheology of hydrogels; strain sweep, ω = 6.28 rad/s): above 25%
